According to US20230091225A1, “Bifunctional chimeric heterocyclic compounds for targeted degradation of androgen receptors and use thereof” (HINOVA PHARMACEUTICALS INC., priority 2019, published 2023):
Like-named read-outs stand apart in the source and are kept apart here. Values belong to the compound of their own block, whether it stands above or below them.

Tests used:
androgen receptor (AR) = target: T1, androgen receptor (AR) (Homo sapiens, UniProt P10275); assay: Degradation of androgen receptor (AR) protein in VCaP cells by ELISA; assay type: cell-based; conditions: for inhibition at 0.1 µM: read-out: % degradation
T1 sequence (P10275 1-920): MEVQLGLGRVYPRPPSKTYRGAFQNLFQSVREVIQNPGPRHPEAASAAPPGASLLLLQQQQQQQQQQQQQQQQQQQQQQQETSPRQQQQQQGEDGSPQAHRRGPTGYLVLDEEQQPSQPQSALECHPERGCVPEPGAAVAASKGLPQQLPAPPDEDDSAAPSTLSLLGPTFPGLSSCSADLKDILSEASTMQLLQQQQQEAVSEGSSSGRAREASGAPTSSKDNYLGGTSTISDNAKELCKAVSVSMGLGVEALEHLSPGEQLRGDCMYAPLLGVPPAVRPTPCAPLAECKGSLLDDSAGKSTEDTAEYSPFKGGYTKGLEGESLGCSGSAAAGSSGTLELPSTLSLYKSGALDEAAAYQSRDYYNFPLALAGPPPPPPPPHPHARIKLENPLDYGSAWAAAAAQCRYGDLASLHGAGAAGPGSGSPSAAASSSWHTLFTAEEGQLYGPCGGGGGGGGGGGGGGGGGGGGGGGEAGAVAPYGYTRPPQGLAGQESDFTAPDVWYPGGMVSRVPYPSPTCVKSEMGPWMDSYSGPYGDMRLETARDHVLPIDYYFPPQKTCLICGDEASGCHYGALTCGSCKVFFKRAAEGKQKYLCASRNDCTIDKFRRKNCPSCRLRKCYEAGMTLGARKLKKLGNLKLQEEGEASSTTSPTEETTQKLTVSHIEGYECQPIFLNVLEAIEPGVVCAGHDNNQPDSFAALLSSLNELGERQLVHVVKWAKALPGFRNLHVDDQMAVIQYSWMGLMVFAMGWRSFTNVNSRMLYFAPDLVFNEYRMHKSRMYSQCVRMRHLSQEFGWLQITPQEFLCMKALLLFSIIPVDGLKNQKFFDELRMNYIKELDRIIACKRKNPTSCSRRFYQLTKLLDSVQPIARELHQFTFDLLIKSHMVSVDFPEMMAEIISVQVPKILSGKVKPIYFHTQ

LNCaP/AR cells = assay: Inhibition of proliferation of LNCaP/AR prostate cancer cells (CCK-8); assay type: cell-based; conditions: proliferation of LNCap/AR cells, 6 days, CCK-8, read-out: IC50
[1] = percentage of degraded AR at 100 nM, VCaP cells, 16 h, ELISA

% degradation (androgen receptor (AR); [1]): B (79%-50%) | IC50 (LNCaP/AR cells): < 0.1 µM
Compound: Cc1ncsc1-c1ccc([C@H](C)NC(=O)[C@@H]2C[C@@H](O)CN2C(=O)[C@@H](NC(=O)COCCOCC#Cc2ccc3c(c2)CN([C@H]2C(C)(C)[C@H](Oc4ccc(C#N)c(Cl)c4)C2(C)C)C3=O)C(C)(C)C)cc1 [Compound 13]

inhibition at 0.1 µM (androgen receptor (AR); [1]): 50 to 79% | IC50 (LNCaP/AR cells; 144 h): < 0.1 µM
Compound: Cc1ncsc1-c1ccc([C@H](C)NC(=O)[C@@H]2C[C@@H](O)CN2C(=O)[C@@H](NC(=O)COCCC#Cc2ccc3c(c2)CN([C@H]2C(C)(C)[C@H](Oc4ccc(C#N)c(Cl)c4)C2(C)C)C3=O)C(C)(C)C)cc1 [Compound 27]

IC50 (LNCaP/AR cells): > 1 µM
Compound: (2R,4R)-1-((S)-2-(2-((5-((4-((1r,3r)-3-(4-(4H-1,2,4-triazol-1-yl)phenoxy)-2,2,4,4-tetramethylcyclobutyl)carbamoyl)phenyl)amino)pentyl)oxy)acetamide)-3,3-dimethylbutyryl)-4-hydroxy-N-((S)-1-(4-(4-methylthiazol-5-yl)phenyl)ethyl) pyrrolidine-2-carboxamide [Compound 405]

IC50 (LNCaP/AR cells): 0.1 to 0.5 µM
Compound: (2S,4R)-1-((S)-2-(2-((2-((5-(1r,3r)-3-(3-chloro-4-cyanophenoxy)-2,2,4,4-tetramethylcyclobutyl)-1-oxoisoindolin-5-yl)oxy)pentyl)oxy)acetamide)-3,3-dimethylbutyryl)-4-hydroxy-N-((S)-1-(4-(4-methylthiazol-5-yl)phenyl)ethyl) pyrrolidine-2-carboxamide [Compound 406]

IC50 (LNCaP/AR cells; 144 h): > 1 µM
Compound: Cc1ncsc1-c1ccc([C@H](C)NC(=O)[C@@H]2C[C@@H](O)CN2C(=O)[C@@H](NC(=O)COCCCCCNc2ccc3c(c2)CN([C@H]2C(C)(C)[C@H](Oc4ccc(C#N)c(Br)c4)C2(C)C)C3=O)C(C)(C)C)cc1 [Compound 433, (2S,4R)-1-((S)-2-(2-((5-((2-((1r,3r)-3-(3-bromo-4-cyanophenoxy)-2,2,4,4-tetramethylcyclobutyl)-1-oxoisoindolin-5-yl)amino)pentyl)oxy)acetylamino)-3,3-dimethylbutyryl)-4-hydroxy-N-((S)-1-(4-(4-methylthiazole5-yl)phenyl)ethyl) pyrrolidinyl-2-carboxamide]

IC50 (LNCaP/AR cells; 144 h): < 0.1 µM
Compound: N#Cc1ccc(O[C@H]2CC[C@H](N3Cc4cc(N5CCC(CN6CCN(c7cc8c(cc7F)C(=O)N(C7CCC(=O)NC7=O)C8)CC6)CC5)ncc4C3=O)CC2)cc1Cl (stereo partly drawn) [Compound 313]

IC50 (LNCaP/AR cells; 144 h): 0.5 to 1 µM
Compound: [2H]C([2H])([2H])N(C(=O)c1ccc(N2CCC(CN3CCN(c4cc5c(cc4F)C(=O)N(C4CCC(=O)NC4=O)C5)CC3)CC2)nc1)[C@H]1CC[C@H](Oc2ccc(C#N)c(Cl)c2)CC1 (stereo partly drawn) [Compound 305, N-((1r,4r)-4-(3-chloro-4-cyanophenoxy)cyclohexyl)-6-(4-((4-(2-(2,6-dioxopiperidin-3-yl)-6-fluoro-1-oxoisoindol-5-yl)piperazin-1-yl)methyl)piperidin-1-yl)-N-deuteromethylnicotinamide]

IC50 (LNCaP/AR cells; 144 h): 0.1 to 0.5 µM
Compound: Cc1ncsc1-c1ccc([C@H](C)NC(=O)[C@@H]2C[C@@H](O)CN2C(=O)[C@@H](NC(=O)COCCCCCCc2ccc3c(c2)CN([C@H]2C(C)(C)[C@H](Oc4ccc(C#N)c(Cl)c4)C2(C)C)C3=O)C(C)(C)C)cc1 [Compound 408, (2S,4R)-1-((S)-2-(2-((6-(2-((1r,3r)-3-(3-chloro-4-cyanophenoxy)-2,2,4,4-tetramethylcyclobutyl)-1-oxoisoindolin-5-yl)hexyl)oxy)acetamide)-3,3-dimethylbutyryl)-4-hydroxy-N-((S)-1-(4-(4-methylthiazol-5-yl)phenyl)ethyl) pyrrolidine-2-carboxamide]

IC50 (LNCaP/AR cells; 144 h): 0.1 to 0.5 µM
Compound: N#Cc1ccc(O[C@H]2CC[C@H](N3Cc4cc(N5CCC(CN6CCN(c7ccc8c(c7)CN(C7CCC(=O)NC7=O)C8=O)CC6)CC5)ncc4C3=O)CC2)cc1Cl (stereo partly drawn) [Compound 312]

Further lines, the compound ahead of its results:

Compound: CC(=O)O[C@@H]1C[C@H](C(=O)N[C@@H](C)c2ccc(-c3scnc3C)cc2)N(C(=O)[C@@H](NC(=O)COCCCCC#Cc2ccc3c(c2)C(=O)N(C2C(C)(C)C(Oc4ccc(C#N)c(Cl)c4)C2(C)C)C3)C(C)(C)C)C1 (stereo partly drawn) [Compound 4, (3R,5R)-1-((S)-2-(2-((6-(2-((1R,3R)-3-(3-chloro-4-cyanophenoxy)-2,2,4,4-tetramethylcyclobutyl)-3-oxoisoindolin-5-yl)hex-5-yn-1-yl)oxy)acetylamino)-3,3-dimethylbutyryl)-5-(((S)-1-(4-(4-methylthiazol-5-yl)phenyl)ethyl)carbamoyl) pyrrolidin-3-yl acetate]
% degradation (androgen receptor (AR)): C (key: A: >80%; B: 79%-50%; C: 49%-25%; D: <25%) | IC50 (LNCaP/AR cells): < 0.1 µM

Compound: Cc1ncsc1-c1ccc([C@H](C)NC(=O)[C@@H]2C[C@@H](O)CN2C(=O)[C@@H](NC(=O)COCC(C)OCC#Cc2ccc3c(c2)CN([C@H]2C(C)(C)[C@H](Oc4ccc(C#N)c(Cl)c4)C2(C)C)C3=O)C(C)(C)C)cc1 (stereo partly drawn) [Compound 15]
inhibition at 0.1 µM (androgen receptor (AR); [1]): 25 to 49% | IC50 (LNCaP/AR cells; 144 h): < 0.1 µM

Compound: Cc1ncsc1-c1ccc([C@H](C)NC(=O)[C@@H]2C[C@@H](O)CN2C(=O)[C@@H](NC(=O)COCCCCCNc2ccc3c(c2)CN([C@H]2C(C)(C)[C@H](Oc4ccc(C#N)c(Cl)c4)C2(C)C)C3=O)C(C)(C)C)cc1 [Compound 411]
IC50 (LNCaP/AR cells; 144 h): < 0.1 µM

Compound: Cc1ncsc1-c1ccc([C@H](C)NC(=O)[C@@H]2C[C@@H](O)CN2C(=O)[C@@H](NC(=O)COCCCC#Cc2ccc3c(c2)CN([C@H]2C(C)(C)[C@H](Oc4ccc(C#N)c(Cl)c4)C2(C)C)C3=O)C(C)(C)C)cc1 [Compound 21]
IC50 (LNCaP/AR cells; 144 h): < 0.1 µM

Compound: CC(=O)O[C@@H]1C[C@@H](C(=O)N[C@@H](C)c2ccc(-c3scnc3C)cc2)N(C(=O)[C@@H](NC(=O)COCCCCCNc2ccc3c(c2)CN([C@H]2C(C)(C)[C@H](Oc4ccc(C#N)c(Cl)c4)C2(C)C)C3=O)C(C)(C)C)C1 [Compound 412]
IC50 (LNCaP/AR cells; 144 h): < 0.1 µM

Compound: Cc1ncsc1-c1ccc([C@H](C)NC(=O)[C@@H]2C[C@@H](O)CN2C(=O)[C@@H](NC(=O)C2(C(=O)NCCCC#Cc3ccc4c(c3)CN(C3C(C)(C)C(Oc5ccc(C#N)c(Cl)c5)C3(C)C)C4=O)CC2)C(C)(C)C)cc1 (stereo partly drawn) [Compound 25]
IC50 (LNCaP/AR cells): < 0.1 µM

Compound: Cc1ncsc1-c1ccc([C@H](C)NC(=O)[C@@H]2C[C@@H](O)CN2C(=O)[C@@H](NC(=O)COCCCCn2cc(-c3ccc4c(c3)CN([C@H]3C(C)(C)[C@H](Oc5ccc(C#N)c(Cl)c5)C3(C)C)C4=O)nn2)C(C)(C)C)cc1 [Compound 30, (2s,4r)-1-((s)-2-(2-(4-(4-(2-((1r,3r)-3-(3-chloro-4-cyanophenoxy)-2,2,4,4-tetramethylcyclobutyl)-1-oxoisobutanol-5-yl)-1H-1,2,3-triazol-1-yl)butoxy)acetamido)-3,3-dimethylbutyryl)-4-hydroxy-N-((S)-1-(4-(4-methylthiazol-5-yl)phenyl)ethyl)pyrrolidine-2-carboxamide]
IC50 (LNCaP/AR cells): 0.1 to 0.5 µM

Compound: CC1(C)[C@H](Oc2ccc(C#N)c(Cl)c2)C(C)(C)[C@H]1N1Cc2cc(C#Cc3cnn(C4CN(c5cc6c(cc5F)C(=O)N(C5CCC(=O)NC5=O)C6=O)C4)c3)ccc2C1=O (stereo partly drawn) [Compound 310, 2-chloro-4-((1r,3r)-3-(5-((1-(1-(2-(2,6-dioxopiperidin-3-yl)-6-fluoro-1,3-dioxoisoindolin-5-yl)azetidine-3-yl)-1H-pyrazol-4-yl)ethynyl)-1-oxoisoindolin-2-yl)-2,2,4,4-tetramethylcyclobutoxy)benzonitrile]
IC50 (LNCaP/AR cells): > 1 µM

Compound: (2S,4R)-1-((S)-2-(3-((4-(2-((1r,3r)-3-(3-chloro-4-cyanophenoxy)-2,2,4,4-tetramethylcyclobutyl)-1-oxoisoindolin-5-yl)3-butynoxy)propylamino)-3,3-dimethylbutanol)-4-hydroxy-N-(S)-1-(4-(4-methylthiazole)phenyl)ethyl) formamide [Compound 34]
IC50 (LNCaP/AR cells): < 0.1 µM

Compound: (2R,4R)-1-((S)-2-(2-((1-(3-(2-((1r,3r)-3-(3-chloro-4-cyanophenoxy)-2,2,4,4-tetramethylcyclobutyl)-1-oxoisoindolin-5-yl)prop-2-yn-1-yl)azetidine-3-yl)oxy) acetylamino)-3,3-dimethylbutyryl)-4-hydroxy-N-((S)-1-(4-(4-(4-methylthiazol-5-yl)phenyl)ethyl)pyrrolidine-2-carboxamide [Compound 40]
IC50 (LNCaP/AR cells): 0.1 to 0.5 µM

Compound: 2-chloro-4-((1r,4r)-4-(2-(4-((4-(3-(2,6-dioxopiperidin-3-yl)-2-methyl-4-oxo-3,4-dihydroquinazoline-7-yl)piperazin-1-yl)methyl)piperidin-1-yl)-5-oxo-5H-pyrrolo[3,4-b]pyridin-6(7H)-yl)cyclohexyl)oxy)benzonitrile [Compound 309]
IC50 (LNCaP/AR cells): 0.1 to 0.5 µM
